Results reported in ChEMBL document CHEMBL1201862, “PubChem BioAssay data set” (2004).
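A five-concentration, 48-hour dose response in 96-well plates underlies each endpoint, interpolated linearly between surrounding concentrations. The concentration for 50% growth inhibition is given as GI50.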 Active and inactive are the calls of the source. Rule as the data show it: active = GI50 up to about 1.1 µM and inactive = higher.

How the values were obtained:
Assay in all cases: DTP human tumour cell line panel, 48 h
SNB-19 = tested on: SNB-19
EKVX = tested on: EKVX
HCT-15 = tested on: HCT-15
NCI-H23 = tested on: NCI-H23
MOLT-4 = tested on: MOLT-4
K562 = tested on: K562
UO-31 = tested on: UO-31
UACC-257 = tested on: UACC-257
HOP-92 = tested on: HOP-92
A498 = tested on: A498
COLO 205 = tested on: COLO 205
786-0 = tested on: 786-0
HCT-116 = tested on: HCT-116
HCC 2998 = tested on: HCC 2998
OVCAR-4 = tested on: OVCAR-4
SK-OV-3 = tested on: SK-OV-3
SK-MEL-2 = tested on: SK-MEL-2
IGROV-1 = tested on: IGROV-1
UACC-62 = tested on: UACC-62
LOX IMVI = tested on: LOX IMVI

| Compound | GI50 (SNB-19) | GI50 (EKVX) | GI50 (HCT-15) [µM] | GI50 (NCI-H23) | GI50 (MOLT-4) | GI50 (K562) | GI50 (UO-31) | GI50 (UACC-257) | GI50 (HOP-92) | GI50 (A498) | GI50 (COLO 205) | GI50 (786-0) | GI50 (HCT-116) | GI50 (HCC 2998) | GI50 (OVCAR-4) | GI50 (SK-OV-3) | GI50 (SK-MEL-2) | GI50 (IGROV-1) | GI50 (UACC-62) | GI50 (LOX IMVI) |
| --- | --- | --- | --- | --- | --- | --- | --- | --- | --- | --- | --- | --- | --- | --- | --- | --- | --- | --- | --- | --- |
| O=S(=O)(N=S(c1ccccc1)c1ccccc1)c1ccccc1 | > 100 µM (inactive) | > 100 µM (inactive) | > 100 | > 100 µM (inactive) | > 100 µM (inactive) | > 100 µM (inactive) | > 100 µM (inactive) | > 100 µM (inactive) | > 100 µM (inactive) | 78.9 µM (inactive) | > 100 µM (inactive) | > 100 µM (inactive) | > 100 µM (inactive) |  |  |  |  |  |  |  |
| COc1ccc2nc(-c3ccc(N)cc3)sc2c1 | 18.5 µM (inactive) | 32.1 µM (inactive) | 50.5 | > 100 µM (inactive) | 13.6 µM (inactive) | > 100 µM (inactive) | 29.4 µM (inactive) | > 100 µM (inactive) | > 100 µM (inactive) | 53.1 µM (inactive) | > 100 µM (inactive) | 43.9 µM (inactive) | > 100 µM (inactive) | 42 µM (inactive) | > 100 µM (inactive) | > 100 µM (inactive) | > 100 µM (inactive) | 70.5 µM (inactive) | > 100 µM (inactive) |  |
| Nc1ncnc2c1cnn2Cc1ccc(Cl)cc1 | > 100 µM (inactive) |  | > 100 | > 100 µM (inactive) | > 100 µM (inactive) | > 100 µM (inactive) | 78.5 µM (inactive) | > 100 µM (inactive) | > 100 µM (inactive) | 0.445 µM (active) | > 100 µM (inactive) |  | > 100 µM (inactive) | > 100 µM (inactive) | > 100 µM (inactive) |  |  |  |  | > 100 µM (inactive) |
| NC(CCCCO)C(=O)O (centres undefined) | > 100 µM (inactive) | > 100 µM (inactive) | > 100 | > 100 µM (inactive) |  | > 100 µM (inactive) | > 100 µM (inactive) | > 100 µM (inactive) | > 100 µM (inactive) | > 100 µM (inactive) | > 100 µM (inactive) |  |  | > 100 µM (inactive) | > 100 µM (inactive) | > 100 µM (inactive) | > 100 µM (inactive) | > 100 µM (inactive) | > 100 µM (inactive) | > 100 µM (inactive) |
| O=C(O)c1ccccc1CN1CCCC(C(=O)O)C1 (centres undefined) | > 100 µM (inactive) | > 100 µM (inactive) | > 100 | > 100 µM (inactive) | > 100 µM (inactive) | > 100 µM (inactive) | > 100 µM (inactive) | > 100 µM (inactive) | > 100 µM (inactive) | > 100 µM (inactive) | > 100 µM (inactive) | > 100 µM (inactive) | > 100 µM (inactive) |  | > 100 µM (inactive) | > 100 µM (inactive) | > 100 µM (inactive) | > 100 µM (inactive) | > 100 µM (inactive) | > 100 µM (inactive) |
| CCCc1c2c3ccccc3nc-2nc2ccccn12 | > 100 µM (inactive) | > 100 µM (inactive) | > 100 | 0.863 µM (active) | 67.5 µM (inactive) | 52.6 µM (inactive) | 56.8 µM (inactive) | > 100 µM (inactive) | 36.5 µM (inactive) | > 100 µM (inactive) | 97.7 µM (inactive) | 28.4 µM (inactive) |  |  | 50.5 µM (inactive) | > 100 µM (inactive) | > 100 µM (inactive) | 63.5 µM (inactive) | 72.3 µM (inactive) | 41.4 µM (inactive) |
| N#CCCN(CCC#N)c1ccc(C(=N/c2ccc(Cl)cc2)/N=N/c2ccc(Cl)cc2)cc1 | 24.2 µM (inactive) | 18.7 µM (inactive) | 10.7 | 17.5 µM (inactive) | 22.5 µM (inactive) | 32.5 µM (inactive) | 15.2 µM (inactive) | 15 µM (inactive) | 19.2 µM (inactive) | 19.9 µM (inactive) | 16.2 µM (inactive) | 18.3 µM (inactive) | 19 µM (inactive) | 12.8 µM (inactive) | 17.9 µM (inactive) | 33 µM (inactive) | 9.23 µM (inactive) | 14.6 µM (inactive) | 10.9 µM (inactive) |  |
